Results: patent US20230365556A1, “N-ACYL AMINO ACID COMPOUNDS AND METHODS OF USE” (Pliant Therapeutics, Inc., priority 2016, published 2023)
Structures can show the parent of a compound that is named as a salt.

What follows are molecules tested against αvβ1 integrin (αvβ1 expressing CHO cells) (Homo sapiens (Human), UniProt P05556+P06756) (assay: Cell adhesion assay: inhibition of αvβ1 expressing CHO cells attaching to TGFβ1LAP). Conditions: 1 h at 37° C., crystal violet absorbance 595 nm, read-out: αvβ1 Inhibition IC50 (nM)-range.
Format: cell-based
Protocol: Example B1—Cell Adhesion Assay
In order to determine the potency, the compounds were assessed for their ability to inhibit αvβ1 expressing CHO cells attach to TGFβ1LAP. Microplates were coated overnight with 2 ug/ml TGFβ1LAP at 4° C., and blocked with 2% BSA/PBS for 30 min before the assay. Cells were detached and washed in PBS. After that the cells were resuspended in DMEM at 1.0×10^6 cells/ml, fifty microliter of cell suspension and fifty microliter of compound solution were added into the plate. The plates were incubated for one hour at 37° C. in humidified 5% carbon dioxide. Non-adherent cells were removed by centrifugation top side down at 58 g for 5 min. The attached cells were fixed and stained with 0.5% crystal violet (in 20% methanol and 1% formaldehyde) and the wells washed with PBS. Crystal violet was dissolved in 2% Triton-X in PBS. The relative number of cells in each well was evaluated by the absorbance at 595 nm in a microplate reader (Tecan). IC50 values were determined by non-linear regression with four parameters (Graphpad Prism 7.01, Y=Bottom+(Top−Bottom)/(1+10^((Log IC50−X)*HillSlope)).
The compounds tested were compound samples prepared according to procedures described in the Synthetic Examples section, with the stereochemical purity as indicated in the Examples indicated for Example or Compound No. 1-62. The compounds tested were predominantly S-configuration at the alpha carbon of the amino acid scaffold, except for compounds 123, 124, and 125 which were predominantly R-configuration at the alpha carbon of the amino acid scaffold. “Example or Compound No.” in Table B-1 refers to the compound illustrated in the examples for Example or Compound Nos. 1-62 (the compounds of Examples 1-62 are labeled as Compounds 1-62 in Table 1). “Example or Compound No.” in Table B-1 refers to the compound number as indicated in Table 1 or Table 2 for Example or Compound Nos. 63-126.

αvβ1 integrin (αvβ1 expressing CHO cells), sequence (P06756 31-889): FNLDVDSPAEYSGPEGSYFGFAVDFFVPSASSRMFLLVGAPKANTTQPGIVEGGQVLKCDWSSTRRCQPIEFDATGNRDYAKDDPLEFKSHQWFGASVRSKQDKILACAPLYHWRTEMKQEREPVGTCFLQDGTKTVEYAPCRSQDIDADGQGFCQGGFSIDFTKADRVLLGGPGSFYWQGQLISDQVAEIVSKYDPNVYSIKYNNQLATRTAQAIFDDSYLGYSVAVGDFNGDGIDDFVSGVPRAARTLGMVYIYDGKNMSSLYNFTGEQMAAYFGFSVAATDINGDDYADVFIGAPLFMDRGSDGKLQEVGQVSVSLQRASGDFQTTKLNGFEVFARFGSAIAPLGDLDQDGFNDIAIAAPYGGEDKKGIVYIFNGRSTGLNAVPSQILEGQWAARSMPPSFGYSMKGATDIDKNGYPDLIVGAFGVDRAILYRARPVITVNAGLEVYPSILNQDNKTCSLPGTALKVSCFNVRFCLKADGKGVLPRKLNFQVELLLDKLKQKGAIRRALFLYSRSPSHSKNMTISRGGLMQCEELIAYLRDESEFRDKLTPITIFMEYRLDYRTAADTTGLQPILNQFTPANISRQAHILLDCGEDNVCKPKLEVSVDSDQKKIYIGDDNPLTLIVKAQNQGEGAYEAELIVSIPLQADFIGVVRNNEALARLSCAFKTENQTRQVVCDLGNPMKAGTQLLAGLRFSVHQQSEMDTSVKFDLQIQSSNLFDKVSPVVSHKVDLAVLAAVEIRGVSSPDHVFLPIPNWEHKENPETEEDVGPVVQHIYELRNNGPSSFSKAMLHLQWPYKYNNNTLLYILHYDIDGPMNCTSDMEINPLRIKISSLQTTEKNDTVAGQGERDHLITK
αvβ1 integrin (αvβ1 expressing CHO cells), sequence (P06756 891-1048 partner): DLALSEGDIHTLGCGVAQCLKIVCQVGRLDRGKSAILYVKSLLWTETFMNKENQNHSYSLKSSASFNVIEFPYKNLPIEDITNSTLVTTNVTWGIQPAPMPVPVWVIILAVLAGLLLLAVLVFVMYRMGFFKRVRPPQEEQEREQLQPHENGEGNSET
αvβ1 integrin (αvβ1 expressing CHO cells), sequence (P05556 21-798): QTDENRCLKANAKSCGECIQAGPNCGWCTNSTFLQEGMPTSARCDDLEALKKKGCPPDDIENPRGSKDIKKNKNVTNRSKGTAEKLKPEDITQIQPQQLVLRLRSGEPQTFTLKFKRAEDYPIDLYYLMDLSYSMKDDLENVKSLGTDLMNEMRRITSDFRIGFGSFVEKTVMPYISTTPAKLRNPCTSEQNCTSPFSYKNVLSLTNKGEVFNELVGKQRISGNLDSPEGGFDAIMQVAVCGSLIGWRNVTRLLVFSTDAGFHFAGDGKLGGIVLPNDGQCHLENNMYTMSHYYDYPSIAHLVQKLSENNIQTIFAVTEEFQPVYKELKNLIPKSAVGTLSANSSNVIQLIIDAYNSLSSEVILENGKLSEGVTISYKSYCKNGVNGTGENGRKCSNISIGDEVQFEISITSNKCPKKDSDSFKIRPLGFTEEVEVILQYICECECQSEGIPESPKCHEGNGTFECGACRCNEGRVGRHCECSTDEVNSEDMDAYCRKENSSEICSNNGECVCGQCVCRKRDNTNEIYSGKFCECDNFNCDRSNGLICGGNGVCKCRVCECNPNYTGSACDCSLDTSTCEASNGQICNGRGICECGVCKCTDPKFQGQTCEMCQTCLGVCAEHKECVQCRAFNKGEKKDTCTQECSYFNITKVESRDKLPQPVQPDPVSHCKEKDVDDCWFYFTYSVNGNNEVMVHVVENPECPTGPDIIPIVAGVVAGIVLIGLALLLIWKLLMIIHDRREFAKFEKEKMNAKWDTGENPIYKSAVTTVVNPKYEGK

| Compound | IC50 [nM] |
| --- | --- |
| CN1C(=O)CN=C1NCCCCOc1ccc(C[C@H](NC(=O)c2c(Cl)cccc2Cl)C(=O)O)cc1 [Example 57, (S)-2-(2,6-dichlorobenzamido)-3-(4-(4-((1-methyl-5-oxo-4,5-dihydro-1H-imidazol-2-yl)amino)butoxy)phenyl)propanoic acid] | > 1000 |
| Cn1ncc2cccc(C(=O)N[C@@H](CCCCCCCc3ccc4c(n3)NCCC4)C(=O)O)c21 [Compound 114] | < 50 |
| Cn1cnc2ccc(C(=O)N[C@@H](Cc3ccc(OCCCc4ccc5c(n4)NCCC5)cc3)C(=O)O)cc21 [Example 2, (S)-2-(1-methyl-1H-benzo[d]imidazole-6-carboxamido)-3-(4-(3-(5,6,7,8-tetrahydro-1,8-naphthyridin-2-yl)propoxy)phenyl)propanoic acid] | < 50 |
| Cn1ncc2cc(C(=O)NC(CCCCCCCc3ccc4c(n3)NCCC4)C(=O)O)ccc21 (centres unmarked) [Compound 82, 2-(1-methyl-1H-indazole-5-carboxamido)-9-(5,6,7,8-tetrahydro-1,8-naphthyridin-2-yl)nonanoic acid] | 50 to 250 |
| O=C(N[C@@H](Cc1ccc(OCCCc2ccc3c(n2)NCCC3)cc1)C(=O)O)c1cncc(-c2ccccc2)n1 [Example 4, (S)-2-(6-phenylpyrazine-2-carboxamido)-3-(4-(3-(5,6,7,8-tetrahydro-1,8-naphthyridin-2-yl)propoxy)phenyl)propanoic acid] | > 1000 |
| CN1CCN=C(NCCCCOc2ccc(C[C@H](NC(=O)c3c(Cl)cccc3Cl)C(=O)O)cc2)C1=O [Example 17, (S)-2-(2,6-dichlorobenzamido)-3-(4-(4-((4-methyl-3-oxo-3,4,5,6-tetrahydropyrazin-2-yl)amino)butoxy)phenyl)propanoic acid] | > 1000 |
| Cn1ncc2c(C(=O)N[C@@H](CCCCCCCc3ccc4c(n3)NCCC4)C(=O)O)cccc21 [Compound 115] | 250 to 1000 |
| O=C(N[C@@H](CCCCCCCc1ccc2c(n1)NCCC2)C(=O)O)c1ccc(-c2cccnc2)cc1 [Compound 111] | 250 to 1000 |
| O=C(N[C@@H](CCCCCCCc1ccc2c(n1)NCCC2)C(=O)O)c1ccc(-c2ccncc2)cc1 [Compound 112] | 50 to 250 |
| O=C(N[C@@H](Cc1ccc(OCCCc2ccc3c(n2)NCCC3)cc1)C(=O)O)c1c(F)cccc1C(F)(F)F [Example 6, (S)-2-(2-fluoro-6-(trifluoromethyl)benzamido)-3-(4-(3-(5,6,7,8-tetrahydro-1,8-naphthyridin-2-yl)propoxy)phenyl)propanoic acid] | < 50 |
| O=C(NC(CCCCCCCc1ccc2c(n1)NCCC2)C(=O)O)c1ccc2cn[nH]c2c1 (centres unmarked) [Compound 98] | 50 to 250 |
| CC(=O)N1CCN=C(NCCCCOc2ccc(C[C@H](NC(=O)c3c(Cl)cccc3Cl)C(=O)O)cc2)C1 [Example 55, (S)-3-(4-(4-((4-acetyl-3,4,5,6-tetrahydropyrazin-2-yl)amino)butoxy)phenyl)-2-(2,6-dichlorobenzamido)propanoic acid] | 50 to 250 |
| O=C(N[C@@H](Cc1ccc(OCCCCNC2=NCCO2)cc1)C(=O)O)c1c(Cl)cccc1Cl [Example 61, (S)-2-(2,6-dichlorobenzamido)-3-(4-(4-((4,5-dihydrooxazol-2-yl)amino)butoxy)phenyl)propanoic acid] | 50 to 250 |
| O=C(N[C@@H](CCCCCCCc1ccc2c(n1)NCCC2)C(=O)O)c1ccc2cn(C(F)F)nc2c1 [Compound 108] | 50 to 250 |

The next lines start with the values.

| IC50 [nM] | Compound |
| --- | --- |
| < 50 | O=C(N[C@@H](Cc1ccc(OCCCc2ccc3c(n2)NCCC3)cc1)C(=O)O)c1ccc2cn[nH]c2c1 [Example 40, (2S)-2-(1H-indazole-6-carbonylamino)-3-[4-[3-(5,6,7,8-tetrahydro-1,8-naphthyridin-2-yl)propoxy]phenyl]propanoic acid] |
| < 50 | O=C(NC(Cc1ccc(O[C@H]2CC[C@@H](Nc3ccccn3)CC2)cc1)C(=O)O)c1c(Cl)cccc1Cl (stereo partly drawn) [Example 38, (2S)-2-[(2,6-dichlorobenzoyl)amino]-3-[4-[4-cis-(2-pyridylamino)cyclohexoxy]phenyl]propanoic acid] |
| 50 to 250 | O=C(N[C@@H](CCCCCCCCNC1=NCCS1)C(=O)O)c1c(Cl)cccc1Cl [Example 49, (S)-2-(2,6-dichlorobenzamido)-10-((4,5-dihydrothiazol-2-yl)amino)decanoic acid] |
| < 50 | O=C(N[C@@H](C/C=C/CCCCc1ccc2c(n1)NCCC2)C(=O)O)c1c(Cl)cccc1Cl [Example 20, (S,E)-2-(2,6-dichlorobenzamido)-9-(5,6,7,8-tetrahydro-1,8-naphthyridin-2-yl)non-4-enoic acid] |
| 50 to 250 | O=C(NC(Cc1ccc(OCC2CCC(Nc3ccccn3)CC2)cc1)C(=O)O)c1c(Cl)cccc1Cl [Example 25, (S)-2-(2,6-dichlorobenzamido)-3-(4-(((1s,4R)-4-(pyridin-2-ylamino)cyclohexyl)methoxy)phenyl)propanoic acid] |
| 250 to 1000 | O=C(N[C@@H](CCCCCCCCNC1=NCCCS1)C(=O)O)c1c(Cl)cccc1Cl [Example 54, (S)-2-(2,6-dichlorobenzamido)-10-((5,6-dihydro-4H-1,3-thiazin-2-yl)amino)decanoic acid] |
| < 50 | O=C(N[C@@H](Cc1ccc(OCCCC2CCc3cccnc3N2)cc1)C(=O)O)c1c(Cl)cccc1Cl (stereo partly drawn) [Example 27, (2S)-2-(2,6-dichlorobenzamido)-3-(4-(3-(1,2,3,4-tetrahydro-1,8-naphthyridin-2-yl)propoxy)phenyl)propanoic acid] |
| > 1000 | O=C(N[C@@H](Cc1ccc(N2CC(Cc3ccc4c(n3)NCCC4)C2)cc1)C(=O)O)c1c(Cl)cccc1Cl [Example 21, (S)-2-(2,6-dichlorobenzamido)-3-(4-(3-((5,6,7,8-tetrahydro-1,8-naphthyridin-2-yl)methyl)azetidin-1-yl)phenyl)propanoic acid] |
| < 50 | CC(OCCc1ccc2c(n1)NCCC2)c1ccc(C[C@H](NC(=O)c2c(Cl)cccc2Cl)C(=O)O)cc1 (stereo partly drawn) [Example 33, (2S)-2-(2,6-dichlorobenzamido)-3-(4-(1-(2-(5,6,7,8-tetrahydro-1,8-naphthyridin-2-yl)ethoxy)ethyl)phenyl)propanoic acid] |
| < 50 | O=C(N[C@@H](Cc1ccc(OCCCc2ccc3c(n2)NCCC3)cc1)C(=O)O)c1ccc2ocnc2c1 [Example 10, (S)-2-(benzo[d]oxazole-5-carboxamido)-3-(4-(3-(5,6,7,8-tetrahydro-1,8-naphthyridin-2-yl)propoxy)phenyl)propanoic acid] |
| 250 to 1000 | O=C(NC(CN1CC(OCCCc2ccc3c(n2)NCCC3)C1)C(=O)O)c1c(Cl)cccc1Cl (racemic) [Example 28, (+/−)-2-(2,6-dichlorobenzamido)-3-(3-(3-(5,6,7,8-tetrahydro-1,8-naphthyridin-2-yl)propoxy)azetidin-1-yl)propanoic acid] |
| 50 to 250 | Cn1cnc2cc(C(=O)N[C@@H](Cc3ccc(OCCCc4ccc5c(n4)NCCC5)cc3)C(=O)O)ccc21 [Example 9, (S)-2-(1-methyl-1H-benzo[d]imidazole-5-carboxamido)-3-(4-(3-(5,6,7,8-tetrahydro-1,8-naphthyridin-2-yl)propoxy)phenyl)propanoic acid] |
| 250 to 1000 | O=C(N[C@@H](Cc1ccc(COCCCNc2ccccn2)cc1)C(=O)O)c1c(Cl)cccc1Cl [Example 30, (S)-2-(2,6-dichlorobenzamido)-3-(4-((3-(pyridin-2-ylamino)propoxy)methyl)phenyl) propanoic acid trifluoroacetate] |
| > 1000 | O=C(N[C@@H](CCCCCCCCNC1=NCCCO1)C(=O)O)c1c(Cl)cccc1Cl [Example 51, (S)-2-(2,6-dichlorobenzamido)-10-((5,6-dihydro-4H-1,3-oxazin-2-yl)amino)decanoic acid] |
| < 50 | O=C(N[C@@H](Cc1ccc(OCCCc2ccc3c(n2)NCCC3)cc1)C(=O)O)c1ccc2[nH]ncc2c1 [Example 42, (2S)-2-(1H-indazole-5-carbonylamino)-3-[4-[3-(5,6,7,8-tetrahydro-1,8-naphthyridin-2-yl)propoxy]phenyl]propanoic acid] |
| < 50 | Cn1ncc2ccc(C(=O)N[C@@H](Cc3ccc(OCCCc4ccc5c(n4)NCCC5)cc3)C(=O)O)cc21 [Example 41, (2S)-2-[(1-methylindazole-6-carbonyl)amino]-3-[4-[3-(5,6,7,8-tetrahydro-1,8-naphthyridin-2-yl)propoxy]phenyl]propanoic acid] |
| 50 to 250 | Nc1cc(C(=O)N[C@@H](Cc2ccc(OCCCc3ccc4c(n3)NCCC4)cc2)C(=O)O)ccc1O [Example 11, (S)-2-(3-amino-4-hydroxybenzamido)-3-(4-(3-(5,6,7,8-tetrahydro-1,8-naphthyridin-2-yl)propoxy)phenyl)propanoic acid] |
| > 1000 | O=C(N[C@@H](Cc1ccc(O[C@H]2CC[C@H](Nc3ccccn3)CC2)cc1)C(=O)O)c1c(Cl)cccc1Cl [Example 39, (2S)-2-[(2,6-dichlorobenzoyl)amino]-3-[4-[4-trans-(2-pyridylamino)cyclohexoxy]phenyl]propanoic acid] |
